In this assay the test system is MCF7/ADR cells. The experiment in a line: Cell survival rate assay with doxorubicin. The assay is classed as cell-based, human. The settings on record: no treatment group (no vector). The protocol:
Cells were seeded in a 96-well flat bottom microplate at 1000 cells per well. After 24 hours of incubation, cells were treated with Ad-LacZ and Ad-REIC at 100 MOI in serum free medium for 2 hours, followed by exchange with fresh complete medium. After 48 hours, floating dead cells were removed by medium exchange. Adhering cells were cultured with doxorubicin at various concentrations for 72 hours. At the end of incubation, cell survival rates were measured using CellTiter96 (trademark) Aqueous One Solution Cell Proliferation Assay (Promega Corp.).

This passage reports cell survival % and cell survival rates results from US8946173B2, “Cancer cell death inducing agent having effects of potentiating anticancer drug against anticancer-drug-resistant cancer” (Momotaro-Gene Inc., priority 2007, dated 2015).

In the case of `COc1cccc2c1C(=O)c1c(O)c3c(c(O)c1C2=O)C[C@@](O)(C(=O)CO)C[C@@H]3O[C@H]1C[C@H](N)[C@H](O)[C@H](C)O1` [doxorubicin], the cell survival % (10 μM doxorubicin) was determined as 88.1%. In addition, the cell survival rates (25 μM doxorubicin) is given as 45.9%.
